Where two headings read alike, the source gives them in different places.
What was measured:
[1] = Elution rate in aqueous solutions of various pH and physiological saline solution; assay type: physicochemical; conditions: for elution rate, pH 1.2, 2 and 3: initial pH 1.2, 2 and 3; for elution rate, pH 1.2, 2 and 3 / elution rate, pH 4 and 5 / elution rate, physiological saline solution: 37° C.; for elution rate, pH 4 and 5: initial pH 4 and 5
Protocol: After 40 ml of Japan Pharmacopoeia 1st solution (pH 1.2) was placed in a vessel whose temperature was kept constant in a thermostat at 37° C., 200 mg of TMS-19-Q was added and the mixture was stirred by a magnetic stirrer. […] Then, Japan Pharmacopoeia 2nd solution were mixed with the 1st solution, and by using aqueous solutions whose pH values were adjusted to be 2, 3, 4 and 5 and a physiological saline solution, respectively, elution rate of each thereof was measured.
To 40 ml of Japan Pharmacopoeia 1st solution (pH 1.2), 120 ml of water was added, and after the solution was kept in a constant temperature bath controlled at 37° C., 200 mg of midecamycin was added, and the mixture was stirred by a magnetic stirrer. Then, 5 ml aliquots of the solution were sampled in a lapse of time (at 5 minutes, 15 minutes and 30 minutes), and absorbances were measured (wavelength: 232 nm) and elution rate were calculated. Then, Japan Pharmacopoeia 1st solution and Japan Pharmacopoeia 2nd solution were mixed to prepare aqueous solutions whose pH values were adjusted to be 2, 3, 4 and 5, respectively. By using these solutions and physiological saline solution, the elution rates were calculated following the same procedures as those indicated above.
By following the same procedures and under the same conditions as those of Example 31, elution rates of 9-propionyljosamycin were measured.
By following the same procedures and under the same conditions as those of Example 31, elution rates of josamycin were measured.
In addition to the conditions of Example 31, Japan Pharmacopoeia 1st solution and Japan Parmacopoeia 2nd solution were mixed to prepare an aqueous solution having pH of 2.5, and following the same procedures as those of Example 31, elution rates of 9,3"-diacetylmidecamycin were measured.

[2] = Stability in Japan Pharmacopoeia 1st solution (pH 1.2) at 37° C., with or without stabilizer (TLC densitometry, 232 nm); assay type: physicochemical; conditions: for improvement of stability compared with control, 30 minutes: value at 30 minutes; for stability in 1st solution (in words): 1st solution pH 1.2, no stabilizer; for stability with tri-sodium citrate (in words): 150-300 mg of tri-sodium citrate; for stability with calcium phosphate (in words): 150-400 mg of calcium phosphate; for stability with glycine (in words): 150-900 mg of glycine; for stability with L-aspartic acid monosodium salt (in words): 200-500 mg of Asp.Na; for stability with monosodium glutamate (in words): 200-500 mg of Glu.Na; for degraded at 0.5 h: read-out: decomposites (balance), 30 minutes; for remaining at 0.5 h: read-out: residual amount after contact with 1st solution, 30 minutes; for degraded at 1 h / remaining at 1 h: 60 minutes; for stability with a larger amount of glycine (in words): larger amount of glycine (up to 900 mg)
From the text: The stabilizers showing pH 3-10 used in the invention may be substances having a buffering or antacid action and showing pH 3-10, preferably 5.5-6.5. These are, for example, neutral amino acids or their basic salts, basic salts of acidic amino acids, basic amino acids,basic salts of organic carboxylic acids,basic salts of polybasic organic carboxylic acids, basic salts of uronic acid or inorganic salt antacids. The neutral amino acids or basic salts thereof include glycine, alanine, aminobutyric acid, proline, leucine, isoleucine, methionine, threonine, serine, valine, or their aluminium salts, for example aluminium glycinate. Among these, glycine, alanine and aluminium glycinate, both of which show pH 5.5-6.5, are preferable. The basic salts of acidic amino acid include monobasic salts such as a monosodium, monopotassium or magnesium salt of glutaminic or aspartic acid. Among these monobasic salts, monosodium glutamate or monosodium aspartate is preferable. The basic amino acids include arginine, glutamine, asparagine, citrulin, tryptophane and histidine. Especially, histidine is preferable. The basic salts of monobasic organic carboxylic acid include basic salts such as sodium, potassium, magnesium or aluminium salts of saturated monobasic organic carboxylic acids such as acetic acid and propionic acid, of unsaturated monobasic organic acids such as acrylic acid, crotonic acid and vinylacetic acid, and of other monobasic organic acids such as lactic acid, pyruvic acid, glyceric acid and acetoacetic acid. The basic salts of polybasic organic carboxylic acid include mono-, di- or tri-sodium, potassium, magnesium, calcium or aluminium salts of saturated polybasic organic carboxylic acids such as oxalic acid, malonic acid, succinic acid, glutaric acid, adipic acid and pimelic acid, of unsaturated polybasic organic carboxylic acids such as maleic acid and fumaric acid, and of other polybasic organic carboxylic acids such as meso-oxalic acid, malic acid, oxalacetic acid and citric acid. Among these, trisodium citrate is preferable. The basic salts of uric acids include sodium salts of glucuronic acid, galacturonic acid or their polymers such as alginic acid or peptic acid and dihydroxyaluminium aminoacetate sodium alginate. The inorganic salt antacids include calcium hydrogenphosphate, disodium hydrogenphosphate, dipotassium hydrogenphosphate, magnesium hydrogenphosphate, calcium carbonate, sodium carbonate, potassium carbonate, sodium hydrogen carbonate, aluminium carbonate, magnesium carbonate, potassium metasilicate, magnesium aluminate metasilicate, sodium metasilicate, synthetic aluminium silicate, magnesium silicate, aluminium silicate, magnesium aluminate silicate, magnesium-bismuth aluminate silicate, magnesium oxide, alumina-magnesium hydroxide, magnesium peroxide, magnesium hydroxide, aluminium hydroxide, synthetic hydrotarphite, aluminium phosphate and others. Especially, calcium phosphate and magnesium phosphate are preferable. Each of these stabilizers may be used alone or in the form of a mixture. […] A method for stabilization of 16-membered ring macrolide antibiotics of the present invention will be described in detail. The afore-mentioned various 16-membered ring macrolide antibiotics, for example 9-hydroxy 16-membered ring macrolides such as midecamycin, 3"-propionylleucomycin A5 and josamycin and 9-acyloxy 16-membered ring macrolides such as 9,3"-diacetylmidecamycin and 9-propionyljosamycin show extremely poor residual rates when added to an acidic solution of the Japanese Pharmacopoeia lst liquid (pH 1.2) and allowed to stand. That is, the 9hydroxy 16-membered ring maclorides decompose in a short time to by-produce their iso, demycarosyl and/or isodemycarosyl forms. The 9-acyloxy 16-membered ring macrolides decompose, too, to by-produce their 9-deacyl, 9-deacyl-iso, demycarosyl, 9-deacyl-demycarosyl or 9-deacyl-iso-demycarosyl forms. […]

[3] = solutions whose pH is equal to or less than 4.37
[4] = 1st solution pH 1.2, 37° C., 30 minutes, no stabilizer
[5] = jp 1st solution, pH 1.2, 1st solution pH 1.2, 37° C., 30 minutes, no stabilizer
[6] = jp 1st solution, 1st solution pH 1.2, 37° C., 30 minutes, no stabilizer
[7] = jp 1st solution, 1st solution pH 1.2, 37° C., no stabilizer, read-out: decomposites (balance), 60 minutes
[8] = jp 1st solution, 1st solution pH 1.2, 37° C., no stabilizer, read-out: residual amount after contact with 1st solution, 60 minutes

SMILES	elution rate, pH 1.2, 2 and 3 ([1]; after 15-minute stirring)	elution rate, pH 4 and 5 ([1]; after 15-minute stirring)	elution rate in pH 1.2-3 acidic aqueous solution (summary) ([1]; general description)	elution rate in pH 4-5 weak acidic aqueous solution (summary) ([1]; general description)	elution rate, physiological saline solution ([1]; after 15-minute stirring)	elution rate in physiological saline solution (summary) ([1]; general description)	time within which elution was nearly completed [1, 3]	improvement of stability compared with control, 30 minutes ([2]; 150 mg of glycine)	stability in 1st solution (in words) [2]	stability with tri-sodium citrate (in words) ([2]; 1st solution)	stability with calcium phosphate (in words) ([2]; 1st solution)	stability with glycine (in words) ([2]; 1st solution)	stability with L-aspartic acid monosodium salt (in words) ([2]; 1st solution)	stability with monosodium glutamate (in words) ([2]; 1st solution)	stability with a larger amount of glycine (in words) [2]	degraded at 0.5 h [2, 6]	remaining at 0.5 h [2, 6]	degraded at 1 h [2, 7]	remaining at 1 h [2, 8]	further results
CCC(=O)OC1CC(=O)OC(C)C/C=C/C=C/C(O)C(C)CC(CC=O)C(OC2OC(C)C(OC3CC(C)(O)C(OC(=O)CC)C(C)O3)C(N(C)C)C2O)C1OC (stereo not drawn) [midecamycin]	≥ 95%	45-60%	more than 95%	less than 50%	15%	less than 15%	≤ 15 min	50%	extremely unstable	extremely well stabilized	extremely well stabilized	stabilized well	very much enhanced	very much enhanced	hardly decomposed					decomposites (balance), 30 minutes [2, 4]: 42.6%; residual amount after contact with 1st solution, 30 minutes [2, 4]: 57.4%; degraded at 0.5 h [2, 5]: 55%; remaining at 0.5 h [2, 5]: 45%; degraded at 1 h ([2]; jp 1st solution, pH 1.2, 1st solution pH 1.2, 37° C., no stabilizer, read-out: decomposites (balance), 60 minutes): 65%; remaining at 1 h ([2]; jp 1st solution, pH 1.2, 1st solution pH 1.2, 37° C., no stabilizer, read-out: residual amount after contact with 1st solution, 60 minutes): 35%
CCC(=O)OC1CC(=O)OC(C)C/C=C/C=C/C(OC(C)=O)C(C)CC(CC=O)C(OC2OC(C)C(OC3CC(C)(OC(C)=O)C(OC(=O)CC)C(C)O3)C(N(C)C)C2O)C1OC (stereo not drawn) [9,3"-diacetylmidecamycin]						less than 15%		60%	extremely unstable	very much enhanced	extremely enhanced	stabilized well	very much enhanced	very much enhanced	hardly decomposed	50.6%	49.4%	75.5%	24.5%	elution rate, pH 1.2, 2 and 2.5 ([1]; initial pH 1.2, 2 and 2.5, after 15-minute stirring): ≥ 95%; elution rate, pH 3 ([1]; initial pH 3, after 15-minute stirring): 50%; elution rate, pH 4 and 5 and physiological saline solution ([1]; initial pH 4 and 5 and physiological saline, after 15-minute stirring): 5-10%; elution rate in pH 1.2-2.5 acidic aqueous solution (summary) ([1]; pH 1.2-2.5, general description): more than 95%; time within which elution was nearly completed ([1]; solutions whose final pH is equal to or less than 3.77): ≤ 15 min
CCC(=O)O[C@H]1/C=C/C=C/C[C@@H](C)OC(=O)C[C@@H](OC(C)=O)[C@H](OC)[C@@H](O[C@@H]2O[C@H](C)[C@@H](O[C@H]3C[C@@](C)(O)[C@@H](OC(=O)CC(C)C)[C@H](C)O3)[C@H](N(C)C)[C@H]2O)[C@@H](CC=O)C[C@H]1C [9-propionyljosamycin]	≥ 95%	45-55%	more than 95%	less than 50%	10%	less than 15%	≤ 15 min		extremely unstable	very much enhanced	extremely enhanced	stabilized well	very much enhanced	very much enhanced	hardly decomposed	55.8%	44.2%	84.1%	15.9%	improvement of stability compared with control, 60 minutes ([2]; 150 mg of glycine, value at 60 minutes): improved by four times; degraded at 25 min ([2]; jp 1st solution, pH 1.2, 1st solution, about 25 minutes, read-out: decomposition in contact with 1st solution): 50%
CO[C@@H]1[C@@H](O[C@@H]2O[C@H](C)[C@@H](O[C@H]3C[C@@](C)(O)[C@@H](OC(=O)CC(C)C)[C@H](C)O3)[C@H](N(C)C)[C@H]2O)[C@@H](CC=O)C[C@@H](C)[C@@H](O)/C=C/C=C/C[C@@H](C)OC(=O)C[C@H]1OC(C)=O [josamycin]	≥ 95%	50-60%	more than 95%	less than 50%	15%	less than 15%		30%												time within which elution was nearly completed ([1]; solutions whose pH is equal to or less than 4.35): ≤ 15 min; degraded at 1 h ([2]; jp 1st solution, pH 1.2, decomposites (balance)): 53.3%; remaining at 1 h ([2]; jp 1st solution, pH 1.2, residual amount after contact with 1st solution): 46.7%

— patent publication US4716153A, “Stable oral preparation of macrolide antibiotics and method for stabilizing the same” (priority 1982, dated 1987)
